The values that follow come from ChEMBL document CHEMBL1201862, “PubChem BioAssay data set” (2004).

Among the test systems are LXFL 529; DMS-114; RXF 631; DMS-273; M19-MEL; SNB-78; BT-549; HOP-18; XF498.
Common to all, as to test: NCI tumour cell line growth inhibition, 48 h

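Method: 48-hour compound exposure of cells in 96-well plates, five concentrations, linear interpolation of endpoints. At the GI50, growth is halved.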 Calls of active or inactive are those of the source. No stated cut-off is given here; in the data, active = GI50 up to about 1.1 µM and inactive = higher. A value given as a limit tells only on which side of the number the result lay.

`Nc1nc(Cl)cc(NCCCCO)n1`: the GI50 was > 100 µM (inactive) with LXFL 529; > 100 µM (inactive) with DMS-114; > 100 µM (inactive) in the experiment with RXF 631; > 100 µM (inactive) in the experiment with DMS-273; > 100 µM (inactive) in the experiment with M19-MEL; 15.9 µM (inactive) in the experiment on SNB-78.
As for `Oc1[nH]c(Nc2cccc(CC(F)(F)F)c2)nc2ncnc1-2`, the GI50 with BT-549 is > 100 µM (inactive).
As for `Nc1nc(SCCc2ccccc2)nc2nc3c(c(-c4ccccc4)c12)CCCC3`, in the experiment on BT-549, the GI50 was 42 µM (inactive).
With `C=C1C(O)C2(O)OCC34C(CC5C(C)=CC(=O)C(O)C5(C)C23)OC(=O)C(OC(=O)C/C=C/CCCCCCCC)C14` (configuration not stated), the GI50 in the experiment on HOP-18 was 0.0776 µM (active); in the experiment on XF498, 0.0221 µM (active); in the experiment with DMS-114, 0.02 µM (active); in the experiment with DMS-273, 0.02 µM (active); in the experiment with M19-MEL, 0.02 µM (active); in the experiment on SNB-78 it was 0.0219 µM (active).
Take `Cc1[nH]c(-c2ccccc2)c(O)c1C(=O)OC1CC(C)CCC1C(C)C` (configuration not stated): the GI50 with BT-549 was 18.4 µM (inactive).
Take `C[C@@H](O)C(=O)N1[C@@H]2CC3CC[C@]2(CS1(=O)=O)C3(C)C`: the GI50 in the experiment on BT-549 is > 100 µM (inactive).
Same read-out and setting: the figure for `COn1oc(=O)c2ccccc21` is > 100 µM (inactive).
As to `CCOC(=O)CC1(c2cccc3ccccc23)OC(=O)c2ccccc21` (configuration not stated), the GI50 with HOP-18 is 40.4 µM (inactive); with LXFL 529, 51.2 µM (inactive); with DMS-114 it was 30.6 µM (inactive); with DMS-273, 41.7 µM (inactive); with M19-MEL, 48.5 µM (inactive); in the experiment with SNB-78 it was 66.4 µM (inactive).
With `CN(C)CN(C)c1nc(N(C)C)nc(N(C)CN(C)C)n1`, the GI50 is > 100 µM (inactive) in the experiment with HOP-18; 30.3 µM (inactive) in the experiment on LXFL 529; 96.2 µM (inactive) in the experiment on XF498; 17.5 µM (inactive) in the experiment with DMS-273; 31.8 µM (inactive) in the experiment with M19-MEL.
Turning to `CC(C)(C)c1ccc2c(c1)OP1(Oc3cccc4cccnc34)(O2)Oc2ccc(C(C)(C)C)cc2O1`, the GI50 with HOP-18 was 20.4 µM (inactive); with XF498, 2.72 µM (inactive); with DMS-114 it was 0.71 µM (active); with DMS-273, 3.75 µM (inactive); with M19-MEL, 10.5 µM (inactive); in the experiment on SNB-78, 34.4 µM (inactive).
As to `O=C(NC(Cc1ccc(I)cc1)C(=O)O)c1cccc(Br)c1` (configuration not stated), the GI50 in the experiment on HOP-18 is > 82.4 µM (inactive); in the experiment with DMS-114, 48 µM (inactive); in the experiment on DMS-273 it was > 100 µM (inactive); with M19-MEL it was 56.2 µM (inactive); in the experiment with SNB-78, > 100 µM (inactive).
`CSc1nc(NC2OCC(O)C(O)C2O)c(N)c(=O)n1C` (configuration not stated): the GI50 with HOP-18, with XF498, with DMS-273 and in the experiment on SNB-78 was > 100 µM (inactive) throughout.
With `CCC1NC(/N=N/c2ccc([N+](=O)[O-])cc2)(P(=O)(OC(C)C)OC(C)C)OC1=O` (configuration not stated), the GI50 with LXFL 529, in the experiment on XF498, with DMS-273, in the experiment on M19-MEL and with SNB-78 was > 100 µM (inactive) in each case.
In the case of `C/C(=C\c1ccccc1)n1c(=O)cc(C)n1C`, the GI50 with BT-549 was > 100 µM (inactive).
As for `Cc1cc([N+](=O)[O-])ccc1/N=N/C(=O)NNc1ccc([N+](=O)[O-])cc1C`, the GI50 with BT-549 is 11.6 µM (inactive).
As to `Cc1ccc(NC(=O)C2C(=O)N(c3ccc(C)c(C)c3)C(=O)/C2=N\NC(N)=S)cc1C` (configuration not stated), the GI50 in the experiment on LXFL 529 is > 100 µM (inactive); in the experiment on XF498 it was 97.1 µM (inactive); in the experiment with RXF 631 it was > 100 µM (inactive); in the experiment on DMS-273, > 100 µM (inactive); in the experiment with M19-MEL it was > 100 µM (inactive); in the experiment on SNB-78, > 100 µM (inactive).
Consider `COc1cc2c(cc1OCCCC(=O)Nc1cc(C(=O)Nc3cc(C(=O)Nc4cc(C(=O)NCCCN(C)C)n(C)n4)n(C)n3)n(C)n1)N=CC1CCCN1C2=O` (configuration not stated), for which the GI50 in the experiment on BT-549 is 12.4 µM (inactive).
On to `NCCNCc1c2ccccc2c(CNCCN)c2ccccc12`, for which the GI50 was 25.7 µM (inactive) with HOP-18; 5.86 µM (inactive) in the experiment on LXFL 529; 11.6 µM (inactive) in the experiment on DMS-114; 45.7 µM (inactive) with RXF 631; 14.8 µM (inactive) with M19-MEL; 12.7 µM (inactive) in the experiment with SNB-78.
For the compound `O=P(Nc1ccc(Cl)cc1)(Oc1ccccc1)N(CCCl)CCCl` (configuration not stated), the GI50 with HOP-18 is > 100 µM (inactive); in the experiment with LXFL 529 it was > 100 µM (inactive); with DMS-114 it was > 100 µM (inactive); in the experiment with RXF 631, 63.7 µM (inactive); in the experiment on DMS-273, > 100 µM (inactive); with M19-MEL it was > 100 µM (inactive). Besides, the GI50 with SNB-78 is > 100 µM (inactive).
With `O=S(O)CCCCCSSc1ccccc1`, the GI50 in the experiment on LXFL 529 is 17 µM (inactive); in the experiment on XF498, 24.2 µM (inactive); in the experiment with DMS-114 it was 23.6 µM (inactive); in the experiment with M19-MEL, 50 µM (inactive); in the experiment on SNB-78 it was 41 µM (inactive).
For `Cc1c(N)nc([C@H](CC(N)=O)NC[C@H](N)C(N)=O)nc1C(=O)N[C@H](C(=O)N[C@H](C)[C@@H](O)CC(=O)N[C@H](C(=O)NC(O[C@@H]1O[C@@H](C)[C@@H](N)[C@@H](O)[C@H]1O)C(O)c1nc(-c2nc(C(=O)NCCCCN)cs2)cs1)[C@@H](C)O)[C@@H](O[C@@H]1O[C@@H](CO)[C@@H](O)[C@H](O)[C@@H]1O[C@H]1O[C@H](CO)[C@@H](O)[C@H](OC(N)=O)[C@@H]1O)c1c[nH]cn1` (some centres not stated), the GI50 with BT-549 is > 50 µM (inactive).
Turning to `Oc1cc(-c2ccc(Cl)cc2)nc2ncccc12`, the GI50 with BT-549 was > 100 µM (inactive).
